Laboratory results taken from US9469615B2, “Quinoxalines and AZA-quinoxalines as CRTH2 receptor modulators” (Merck Sharp & Dohme Corp., priority 2010, dated 2016).

The compounds below were run against T1, hCRTH2 (Homo sapiens, UniProt Q9Y5Y4) (assay: Radioligand binding assay ([3H]PGD2 competition, HEK-hCRTH2 membranes)). Settings: [3H]PGD2 binding, rated A-E (Table A).
T1 construct: expressed in transfected cells; host or cells: HEK (human embryonic kidney) cells expressing hCRTH2; membrane preparation
T1 sequence (Q9Y5Y4 1-395): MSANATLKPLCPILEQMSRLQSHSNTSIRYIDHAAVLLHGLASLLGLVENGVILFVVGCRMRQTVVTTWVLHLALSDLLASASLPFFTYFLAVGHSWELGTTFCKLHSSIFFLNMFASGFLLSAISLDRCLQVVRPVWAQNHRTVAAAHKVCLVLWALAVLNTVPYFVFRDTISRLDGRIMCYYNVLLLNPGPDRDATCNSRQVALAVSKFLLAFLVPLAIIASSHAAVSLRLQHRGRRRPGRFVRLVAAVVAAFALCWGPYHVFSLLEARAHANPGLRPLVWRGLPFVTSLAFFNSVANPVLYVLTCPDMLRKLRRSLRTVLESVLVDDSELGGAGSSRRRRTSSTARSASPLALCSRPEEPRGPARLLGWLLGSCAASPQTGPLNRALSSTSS
Summary of the method: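 Filter-bound radioactivity was counted by scintillation after 60 min incubations at room temperature. Membranes (8-20 μg) from HEK cells expressing hCRTH2 competed test ligands against 3.0 nM [3H]PGD2 in Tris-HCl pH 7.4 buffer with EDTA and 2 mM MnCl2; 10 μM PGD2 set non-specific binding.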

Row | Structure (SMILES) | Ki [nM]
1 | O=C(O)CCCCc1nc2cc(C(=O)N[C@@H]3CCc4cc(Cl)ccc43)ccc2nc1-c1ccc(F)cc1 [compound 225, 7-[[(5-chloro-2,3-dihydro-1H-inden-1(R)-yl)amino]carbonyl]-3-(4-fluorophenyl)-2-quinoxalinepentanoic acid] | 0.1 to 2
2 | C[C@@H](NC(=O)c1ccc2nc(-c3ccc(Cl)cc3)c(CCCCC(=O)O)nc2c1)c1cccc(F)c1 [compound 178, 3-(4-chlorophenyl)-7-[[[1(R)-(3-fluorophenyl)ethyl]amino]carbonyl]-2-quinoxalinepentanoic acid] | 0.1 to 2
3 | N#Cc1ccc(CNC(=O)c2ccc3nc(-c4ccc(F)cc4)c(CCc4cccc(CC(=O)O)c4)nc3c2)cc1 [compound 194] | 20.1 to 200
4 | CC(CCCc1nc2cc(C(=O)N[C@@H](c3ccccc3)C(F)(F)F)ccc2nc1-c1ccc(C(F)(F)F)cc1)C(=O)O (stereo partly drawn) [18H, alpha-methyl-3-[4-(trifluoromethyl)phenyl]-7-[[(2,2,2-trifluoro-1(S)-phenylethyl)amino]carbonyl]-2-quinoxalinepentanoic acid] | 2.1 to 20
5 | O=C(O)CCCOc1nc2cc(C(=O)N3CCc4ccccc4C3)ccc2nc1-c1ccccc1 [10F, 4-{[7-(3,4-dihydroiso-quinolin-2(1H)-ylcarbonyl)-3-phenylquinoxalin-2-yl]oxy} butanoic acid] | 2.1 to 20
6 | O=C(O)CCCC(F)c1nc2cc(C(=O)N[C@@H]3CCCc4ccccc43)ccc2nc1-c1ccc(Cl)cc1 (stereo partly drawn) [compound 35, 5-(3-(4-chlorophenyl)-7-(((R)-1,2,3,4-tetrahydronaphthalen-1-yl)carbamoyl)quinoxalin-2-yl)-5-fluoropentanoic acid] | 20.1 to 200
7 | C[C@H](NC(=O)c1ccc2nc(-c3ccc(Cl)cc3)c(CCCCC(=O)O)nc2c1)c1cccnc1 [compound 183] | 2.1 to 20
8 | O=C(O)CCCCc1nc2cc(C(=O)Nc3ccc(F)cc3)ccc2nc1-c1cccc(F)c1 [3T, 3-(3-fluorophenyl)-7-[[(4-fluorophenyl)amino]carbonyl]-2-quinoxalinepentanoic acid] | 20.1 to 200
9 | O=C(O)C1CC1CCc1nc2cc(C(=O)N3CCC(c4ccccc4)CC3)ccc2nc1-c1ccccc1 (single isomer, unassigned) [20G, 2-(2-(3-phenyl-7-(4-phenylpiperidine-1-carbonyl)quinoxaline-2-yl)ethyl)cyclopropanecarboxylic acid] | 2.1 to 20

More lines, now with the values ahead:

Row | Ki [nM] | Structure (SMILES)
10 | 2.1 to 20 | CC(CCc1nc2cc(C(=O)N3CC[C@H](c4ccccc4)C3)ccc2nc1-c1ccc(Cl)cc1)CC(=O)O (stereo partly drawn) [17L, 3-(4-chlorophenyl)-beta-methyl-7-[(3(R)-phenyl-1-pyrrolidinyl)carbonyl]-2-quinoxalinepentanoic acid]
11 | 2.1 to 20 | O=C(O)CCCCc1nc2cc(C(=O)N3CC(c4nc5ccccc5o4)C3)ccc2nc1-c1ccc(F)cc1 [compound 248, 7-[[3-(2-benzoxazolyl)-1-azetidinyl]carbonyl]-3-(4-fluorophenyl)-2-quinoxalinepentanoic acid]
12 | 201 to 700 | O=C(O)CCCC(=O)c1nc2cc(C(=O)N[C@@H]3CCCc4ccccc43)ccc2nc1-c1ccc(Cl)cc1 [compound 34, (R)-5-(3-(4-chlorophenyl)-7-((1,2,3,4-tetrahydronaphthalen-1-yl)carbamoyl)quinoxalin-2-yl)-5-oxopentanoic acid]
13 | 0.1 to 2 | O=C(O)CCCCc1nc2cc(C(=O)N3CCC(c4ccccc4)CC3)ccc2nc1-c1ccc(Br)cc1 [26AB, 3-(4-bromophenyl)-7-[(4-phenyl-1-piperidinyl)carbonyl]-2-quinoxalinepentanoic acid]
14 | 20.1 to 200 | O=C(O)C1CC1CCc1nc2cc(C(=O)N3CCC(c4ccccc4)CC3)ccc2nc1-c1ccccc1 (single isomer, unassigned) [compound 20, 2-(2-(3-phenyl-7-(4-phenylpiperidine-1-carbonyl)quinoxaline-2-yl)ethyl)cyclopropanecarboxylic acid]
15 | 2.1 to 20 | CC(CCCc1nc2cc(C(=O)NC3Cc4ccccc4C3)ccc2nc1-c1ccc(Cl)cc1)C(=O)O (stereo not drawn) [compound 168, 3-(4-chlorophenyl)-7-[[(2,3-dihydro-1H-inden-2-yl)amino]carbonyl]-alpha-methyl-2-quinoxalinepentanoic acid]
16 | 2.1 to 20 | C[C@H](c1ccc(Cl)cc1)N(C)C(=O)c1ccc2nc(-c3ccc(F)cc3)c(CCCCC(=O)O)nc2c1 [compound 242, 7-[[[1(R)-(4-chlorophenyl)ethyl]methylamino]carbonyl]-3-(4-fluorophenyl)-2-quinoxalinepentanoic acid]
17 | 0.1 to 2 | O=C(O)CCCCc1nc2cc(C(=O)NCc3ccccc3)ccc2nc1-c1ccc(F)cc1 [compound 129, 3-(4-fluorophenyl)-7-[[(phenylmethyl)amino]carbonyl]-2-quinoxalinepentanoic acid]

Same assay, conditions: [3H]PGD2 competition, Table B

Row | Structure (SMILES) | Ki [nM]
18 | C[C@H](CCc1nc2cc(C(=O)N(C)Cc3ccc(F)cc3)ccc2nc1-c1ccccc1)CC(=O)O [compound 283, (R)-5-(7-((4-fluorobenzyl)(methyl)carbamoyl)-3-phenylquinoxalin-2-yl)-3-methylpentanoic acid] | 201 to 700
19 | CC1(C)CC[C@@H](NC(=O)c2ccc3nc(-c4ccccc4)c(CCCCC(=O)O)nc3c2)c2ccccc21 [compound 722, (R)-5-(7-((4,4-dimethyl-1,2,3,4-tetrahydronaphthalen-1-yl)carbamoyl)-3-phenylquinoxalin-2-yl)pentanoic acid] | 2.1 to 20
20 | O=C(O)CCCCc1nc2cc(C(=O)N[C@@H]3CCOc4ccccc43)ccc2nc1-c1ccc(Cl)cc1 [compound 506] | 0.1 to 2
21 | C[C@@H](NC(=O)c1ccc2nc(-c3ccc(Cl)cc3)c(CCCCC(=O)O)nc2c1)c1ccc2ccccc2c1 [compound 495, (R)-5-(3-(4-chlorophenyl)-7-((1-(naphthalen-2-yl)ethyl)carbamoyl)quinoxalin-2-yl)pentanoic acid] | 2.1 to 20
22 | CS(=O)(=O)c1ccccc1N1CCN(C(=O)c2ccc3nc(-c4ccc(Cl)cc4)c(CCCCC(=O)O)nc3c2)CC1 [compound 697, 5-(3-(4-chlorophenyl)-7-(4-(2-(methylsulfonyl)phenyl)piperazine-1-carbonyl)quinoxalin-2-yl)pentanoic acid] | 2.1 to 20

Continued, values first:

Row | Ki [nM] | Structure (SMILES)
23 | 2.1 to 20 | Cc1nonc1N1CCN(C(=O)c2ccc3nc(-c4ccc(Cl)cc4)c(CCCCC(=O)O)nc3c2)CC1 [compound 675, 5-(3-(4-chlorophenyl)-7-(4-(4-methyl-1,2,5-oxadiazol-3-yl)piperazine-1-carbonyl)quinoxalin-2-yl)pentanoic acid]
24 | 20.1 to 200 | O=C(O)CCCCc1nc2cc(C(=O)N[C@@H]3CCCc4ccncc43)ccc2nc1-c1ccc(F)cc1 [compound 354, (R)-5-(3-(4-fluorophenyl)-7-((5,6,7,8-tetrahydroisoquinolin-8-yl)carbamoyl)quinoxalin-2-yl)pentanoic acid]
25 | 201 to 700 | C[C@@H](NC(=O)c1ccc2nc(-c3ccc(Cl)cc3)c(CCCc3cccc(CC(=O)O)c3)nc2c1)c1ccc(F)cc1 [compound 545, (R)-2-(3-(3-(3-(4-chlorophenyl)-7-((1-(4-fluorophenyl)ethyl)carbamoyl)quinoxalin-2-yl)propyl)phenyl)acetic acid]
26 | 2.1 to 20 | O=C(O)CCCCc1nc2cc(C(=O)N3CCN(c4ccccc4C(F)(F)F)CC3)ccc2nc1-c1ccc(F)cc1 [compound 363, 5-(3-(4-fluorophenyl)-7-(4-(2-(trifluoromethyl)phenyl)piperazine-1-carbonyl)quinoxalin-2-yl)pentanoic acid]
27 | 2.1 to 20 | C[C@@H](NC(=O)c1ccc2nc(-c3ccc(Cl)cc3)c(CC3CCC(C(=O)O)C3)nc2c1)c1ccccc1 (stereo partly drawn) [compound 394, 3-((3-(4-chlorophenyl)-7-(((R)-1-phenylethyl)carbamoyl)quinoxalin-2-yl)methyl)cyclopentane-carboxylic acid]
28 | 2.1 to 20 | C[C@H](NC(=O)c1ccc2nc(-c3ccc(Cl)cc3)c(CCCCC(=O)O)nc2c1)c1cccc2ccccc12 [compound 494, (S)-5-(3-(4-chlorophenyl)-7-((1-(naphthalen-1-yl)ethyl)carbamoyl)quinoxalin-2-yl)pentanoic acid]
29 | 2.1 to 20 | N#Cc1cccnc1N1CCN(C(=O)c2ccc3nc(-c4ccccc4)c(CCCCC(=O)O)nc3c2)CC1 [compound 303, 5-(7-(4-(3-cyanopyridin-2-yl)piperazine-1-carbonyl)-3-phenylquinoxalin-2-yl)pentanoic acid]
30 | 0.1 to 2 | O=C(O)CCCCc1nc2cc(C(=O)N3CCN(c4ccccc4Cl)CC3)ccc2nc1-c1ccc(Cl)cc1 [compound 609, 5-(3-(4-chlorophenyl)-7-(4-(2-chlorophenyl)piperazine-1-carbonyl)quinoxalin-2-yl)pentanoic acid]
31 | 0.1 to 2 | C[C@H](NC(=O)c1ccc2nc(-c3ccc(Cl)cc3)c(CCCCC(=O)O)nc2c1)c1ccc(F)cn1 [compound 435, (S)-5-(3-(4-chlorophenyl)-7-((1-(5-fluoropyridin-2-yl)ethyl)carbamoyl)quinoxalin-2-yl)pentanoic acid]
32 | 2.1 to 20 | C[C@@H](CCCc1nc2cc(C(=O)N[C@@H]3CCCc4cc(Cl)ccc43)ccc2nc1-c1ccc(F)cc1)C(=O)O [compound 519, (S)-5-(7-(((R)-6-chloro-1,2,3,4-tetrahydronaphthalen-1-yl)carbamoyl)-3-(4-fluorophenyl)quinoxalin-2-yl)-2-methylpentanoic acid]
